Source: US20260256792A1, “TREATMENT OF CHRONIC SPONTANEOUS URTICARIA BY ADMINISTERING (R)-2-[3-[4-AMINO-3-(2-FLUORO-4-PHENOXY-PHENYL)PYRAZOLO[3,4-D]PYRIMIDIN-1-YL]PIPERIDINE-1-CARBONYL]-4-METHYL-4-[4-(OXETAN-3-YL)PIPERAZIN-1-YL]PENT-2-ENENITRILE” (priority 2023, published 2026)

System: angioedema in CSU patients
Test: Phase 2 CSU study: angioedema activity score over 7 days (AAS7)
Format: in vivo, human
Conditions: 400 mg BID; for AAS7 = 0, RRD (%) for rilzabrutinib vs. placebo (95% CI) / AAS7 Post-baseline Mean (SD) / Participants with AAS7 = 0, Responder n (%) / AAS7 % Change difference for rilzabrutinib vs. placebo LS Mean (95% CI) / AAS7 Change difference for rilzabrutinib vs. placebo LS Mean (95% CI) / AAS7 Change from baseline LS Mean (SE) / AAS7 % Change from baseline LS Mean (SE) / AAS7 = 0, Non-responder n (%) / AAS7 = 0, OR (95% CI) for rilzabrutinib vs. placebo: angioedema at baseline; for Non-responder n (%), AAS7 = 0 / OR (95% CI) for rilzabrutinib vs. placebo, AAS7 = 0 / RRD (%) for rilzabrutinib vs. placebo (95% CI), AAS7 = 0 / Responder n (%), AAS7 = 0: outlier removed
Excerpt: The study comprises a 12 week, randomized, double-blind, placebo-controlled, multi-center, dose-ranging efficacy and safety phase, followed by a 40 week open label extension (OLE) phase (see FIG. 1). The study consists of three phases and an optional OLE phase. […] The weekly angioedema activity score (AAS7) was proposed as a tertiary endpoint. […] Patients were to complete the AAS using the e-diary. The e-diary was to be used once daily on the same time of each day recording of participant's answers to the angioedema activity score over 7 days (AAS7) questionnaire.

## CC(C)(C=C(C#N)C(=O)N1CCC[C@@H](n2nc(-c3ccc(Oc4ccccc4)cc3F)c3c(N)ncnc32)C1)N1CCN(C2COC2)CC1 [rilzabrutinib, (R)-2-[3-[4-amino-3-(2-fluoro-4-phenoxy-phenyl)pyrazolo[3,4-d]pyrimidin-1-yl]piperidine-1-carbonyl]-4-methyl-4-[4-(oxetan-3-yl)piperazin-1-yl]pent-2-enenitrile]
Week 8, omalizumab-naïve
  AAS7 = 0, RRD (%) for rilzabrutinib vs. placebo (95% CI): 26.4 %
  AAS7 Post-baseline Mean (SD): 9.97 (16.69)
  Participants with AAS7 = 0, Responder n (%): 13 (50.0) n (%)
Week 9, ITT
  AAS7 % Change difference for rilzabrutinib vs. placebo LS Mean (95% CI): −26.88 (−56.35, 2.58) %
  AAS7 Change difference for rilzabrutinib vs. placebo LS Mean (95% CI): −11.25 (−21.79, −0.72)
  AAS7 Change from baseline LS Mean (SE): −40.70 (4.08)
  AAS7 Post-baseline Mean (SD): 10.00 (17.78)
Week 9, omalizumab-naïve
  Non-responder n (%), AAS7 = 0: 18 (51.4) n (%)
  OR (95% CI) for rilzabrutinib vs. placebo, AAS7 = 0: 0.919
  RRD (%) for rilzabrutinib vs. placebo (95% CI), AAS7 = 0: −2.1 %
  Responder n (%), AAS7 = 0: 17 (48.6) n (%)
  AAS7 % Change from baseline LS Mean (SE): −74.80 (12.27) %
  AAS7 = 0, Non-responder n (%): 14 (53.8) n (%)
  AAS7 = 0, OR (95% CI) for rilzabrutinib vs. placebo: 1.787
  AAS7 = 0, RRD (%) for rilzabrutinib vs. placebo (95% CI): 14.5 %
  AAS7 Post-baseline Mean (SD): 10.87 (18.30)
  Participants with AAS7 = 0, Responder n (%): 12 (46.2) n (%)
Week 10, ITT
  AAS7 % Change difference for rilzabrutinib vs. placebo LS Mean (95% CI): −15.09 (−55.38, 25.21) %
  AAS7 % Change from baseline LS Mean (SE): −64.07 (15.65) %
  AAS7 Change difference for rilzabrutinib vs. placebo LS Mean (95% CI): −8.79 (−20.40, 2.82)
  AAS7 Change from baseline LS Mean (SE): −39.12 (4.47)
  AAS7 Post-baseline Mean (SD): 12.72 (19.89)
Week 10, omalizumab-naïve
  Non-responder n (%), AAS7 = 0: 19 (54.3) n (%)
  OR (95% CI) for rilzabrutinib vs. placebo, AAS7 = 0: 0.945
  RRD (%) for rilzabrutinib vs. placebo (95% CI), AAS7 = 0: −1.4 %
  Responder n (%), AAS7 = 0: 16 (45.7) n (%)
  AAS7 % Change from baseline LS Mean (SE): −60.11 (16.65) %
  AAS7 = 0, Non-responder n (%): 15 (57.7) n (%)
  AAS7 = 0, OR (95% CI) for rilzabrutinib vs. placebo: 1.734
  AAS7 = 0, RRD (%) for rilzabrutinib vs. placebo (95% CI): 13.1 %
  AAS7 Post-baseline Mean (SD): 13.93 (20.43)
  Participants with AAS7 = 0, Responder n (%): 11 (42.3) n (%)
Week 11, ITT
  AAS7 % Change difference for rilzabrutinib vs. placebo LS Mean (95% CI): −23.43 (−51.36, 4.50) %
  AAS7 % Change from baseline LS Mean (SE): −84.81 (10.85) %
  AAS7 Change difference for rilzabrutinib vs. placebo LS Mean (95% CI): −8.17 (−19.55, 3.20)
  AAS7 Change from baseline LS Mean (SE): −42.03 (4.41)
  AAS7 Post-baseline Mean (SD): 10.31 (18.47)
Week 11, omalizumab-naïve
  Non-responder n (%), AAS7 = 0: 14 (40.0) n (%)
  OR (95% CI) for rilzabrutinib vs. placebo, AAS7 = 0: 1.516
  RRD (%) for rilzabrutinib vs. placebo (95% CI), AAS7 = 0: 10.4 %
  Responder n (%), AAS7 = 0: 21 (60.0) n (%)
  AAS7 = 0, Non-responder n (%): 13 (50.0) n (%)
  AAS7 = 0, OR (95% CI) for rilzabrutinib vs. placebo: 2.010
  AAS7 = 0, RRD (%) for rilzabrutinib vs. placebo (95% CI): 17.8 %
  AAS7 Post-baseline Mean (SD): 11.30 (19.07)
  Participants with AAS7 = 0, Responder n (%): 13 (50.0) n (%)
Week 12, ITT
  AAS7 % Change from baseline LS Mean (SE): −87.51 (10.12) %
  AAS7 Change difference for rilzabrutinib vs. placebo LS Mean (95% CI): −7.07 (−17.69, 3.54)
  AAS7 Change from baseline LS Mean (SE): −42.38 (4.13)
  AAS7 Post-baseline Mean (SD): 10.67 (17.53)
Week 12, omalizumab-naïve
  patients with angioedema score (AAS7) of 0: 42.3%
  Non-responder n (%), AAS7 = 0: 18 (51.4) n (%)
  OR (95% CI) for rilzabrutinib vs. placebo, AAS7 = 0: 0.925
  RRD (%) for rilzabrutinib vs. placebo (95% CI), AAS7 = 0: −1.9 %
  Responder n (%), AAS7 = 0: 17 (48.6) n (%)
  AAS7 = 0, Non-responder n (%): 15 (57.7) n (%)
  AAS7 = 0, OR (95% CI) for rilzabrutinib vs. placebo: 1.627
  AAS7 = 0, RRD (%) for rilzabrutinib vs. placebo (95% CI): 11.3 %
  AAS7 Change difference for rilzabrutinib vs. placebo LS Mean (95% CI): −8.14 (−19.74, 3.45)
